# Tested on: HCV pseudoparticles (genotype 1a HCV E1 and E2 envelope, H77C isolate)
# Experiment: microbe, parasite or virus in culture
# Type: cell-based
# Settings: Hepatitis C virus, Huh-7, 48 h, HCV pseudoparticle infection of Huh7 cells, luciferase 2 days after infection; average of duplicates
row,SMILES,EC50
1,C[C@H](NC(=O)C(=O)NCC[C@H](NC(=O)c1ccc(Nc2nc(NC3(c4ccc(Cl)cc4)CC3)nc(OCC(F)(F)F)n2)cc1)C(=O)O)C1CC1 [Compound 1435],0.11 nM

# Same assay, conditions: Hepatitis C virus, Huh-7, 48 h, HCV pseudoparticles (genotype 1a, H77C) in Huh7 cells; average of duplicate; luciferase 2 days after infection
row,SMILES,EC50
1,COC(=O)[C@H](CNC(=O)C(=O)Nc1ccc(Cc2ccccc2)cc1)NC(=O)c1ccc(Nc2nc(NC3(c4ccc(Cl)cc4)CC3)nc(OCC(F)(F)F)n2)cc1 [Compound 3091],2.85 nM
2,CC(C)(CNC(=O)C(=O)Nc1ccc(OC(F)F)cc1)CNC(=O)c1ccc(Nc2nc(NC3(c4ccc(Cl)cc4)CC3)nc(OCC(F)(F)F)n2)cc1F [Compound 3562],0.018 nM
3,O=C(NC[C@H](NC(=O)c1ccc(Nc2nc(NC3(c4ccc(Cl)cc4)CC3)nc(OCC(F)(F)F)n2)cc1)C(=O)O)C(=O)Nc1ccc(Oc2ccncc2)cc1 [Compound 3289],2.53 nM
4,O=C(NC/C(=N/C(=O)c1ccc(Nc2nc(NC3(c4ccc(Cl)cc4)CC3)nc(OCC(F)(F)F)n2)cc1)C(=O)O)C(=O)Nc1ccc(OCC(F)(F)F)cc1 [Compound 3164],0.68 nM

# Same assay, conditions: Hepatitis C virus, Huh-7, 48 h, read-out: Activity (EC50 class), HCV pseudoparticle infection of Huh7 cells, luciferase 2 days after infection; EC50 expressed as class A/B
row,SMILES,EC50
1,O=C(NCC1CCCOC1)C(=O)NC[C@H](NC(=O)c1ccc(Nc2nc(NC3(c4ccc(Cl)cc4)CC3)nc(OCC(F)(F)F)n2)cc1)C(=O)O (some centres unmarked) [Compound 1470],0.01 to 10 nM
2,COC(=O)[C@H](CCNC(=O)C(=O)Nc1ccc(OC)nc1)NC(=O)c1ccc(Nc2nc(NC3(c4ccc(Cl)cc4)CC3)nc(OCC(F)(F)F)n2)cc1 [Compound 1218],0.01 to 10 nM
3,COC(=O)[C@H](CCNC(=O)C(=O)NC1(Cc2ccccc2)CC1)NC(=O)c1ccc(Nc2nc(NC3(c4ccc(Cl)cc4)CC3)nc(OCC(F)(F)F)n2)cc1 [Compound 1325],0.01 to 10 nM
4,CCC(CC)CNC(=O)C(=O)NC[C@H](NC(=O)c1ccc(Nc2nc(NC3(c4ccc(Cl)cc4)CC3)nc(OCC(F)(F)F)n2)cc1)C(=O)OC [Compound 1454],0.01 to 10 nM
5,O=C(NC[C@H](NC(=O)c1ccc(Nc2nc(NC3(c4ccc(Cl)cc4)CC3)nc(OCC(F)(F)F)n2)cc1)C(=O)O)C(=O)NC1Cc2ccccc2C1 [Compound 1403],0.01 to 10 nM
6,O=C(NCC1CCc2ccccc21)C(=O)NC[C@H](NC(=O)c1ccc(Nc2nc(NC3(c4ccc(Cl)cc4)CC3)nc(OCC(F)(F)F)n2)cc1)C(=O)O (some centres unmarked) [Compound 1414],0.01 to 10 nM
7,CC(C)(CNC(=O)C(=O)Nc1ccc(-c2cccc(Cl)c2)cc1)CNC(=O)c1ccc(Nc2nc(NC3(c4ccc(Cl)cc4)CC3)nc(OCC(F)(F)F)n2)cc1 [Compound 1588],0.01 to 10 nM
8,O=C(NCC[C@H](NC(=O)c1ccc(Nc2nc(NC3(c4ccc(Cl)cc4)CC3)nc(OCC(F)(F)F)n2)cc1)C(=O)O)C(=O)NCC1CC1(Cl)Cl (some centres unmarked) [Compound 1445],0.01 to 10 nM
9,CC(C)(CNC(=O)C(=O)NCC1(CN2CCCC2)CC1)CNC(=O)c1ccc(Nc2nc(NC3(c4ccc(Cl)cc4)CC3)nc(OCC(F)(F)F)n2)cc1 [Compound 1036],0.01 to 10 nM
10,O=C(NC[C@H](NC(=O)c1ccc(Nc2nc(NC3(c4ccc(Cl)cc4)CC3)nc(OCC(F)(F)F)n2)cc1)C(=O)O)C(=O)NC1CCCC1 [Compound 1037],0.01 to 10 nM
11,"CN(C)C(=O)C(=O)NC[C@H](NC(=O)c1ccc(Nc2nc(NC3(c4ccc(Cl)cc4)CC3)nc(OCC(F)(F)F)n2)cc1)C(=O)OCCOCCO [Compound 1023, (S)-2-(2-hydroxyethoxy)ethyl 2-(4-(4-(1-(4-chlorophenyl)cyclopropylamino)-6-(2,2,2-trifluoroethoxy)-1,3,5-triazin-2-ylamino)benzamido)-3-(2-(dimethylamino)-2-oxoacetamido)propanoate]",0.01 to 10 nM
12,C[C@H](NC(=O)C(=O)NCC[C@H](NC(=O)c1ccc(Nc2nc(NC3(c4ccc(Cl)cc4)CC3)nc(OCC(F)(F)F)n2)cc1)C(=O)O)C1CC1 [Compound 1435],0.01 to 10 nM
13,Cc1nccn1CCNC(=O)C(=O)NC[C@H](NC(=O)c1ccc(Nc2nc(NC3(c4ccc(Cl)cc4)CC3)nc(OCC(F)(F)F)n2)cc1)C(=O)O [Compound 1412],10 to 1000 nM
14,O=C(NC[C@H](NC(=O)c1ccc(Nc2nc(NC3(c4ccc(Cl)cc4)CC3)nc(OCC(F)(F)F)n2)cc1)C(=O)O)C(=O)Nc1cccc(F)c1 [Compound 1357],0.01 to 10 nM
15,COC(=O)[C@H](CCNC(=O)C(=O)Nc1cccnc1)NC(=O)c1ccc(Nc2nc(NC3(c4ccc(Cl)cc4)CC3)nc(OCC(F)(F)F)n2)cc1 [Compound 1238],0.01 to 10 nM
16,O=C(NCC[C@H](NC(=O)c1ccc(Nc2nc(NC3(c4ccc(Cl)cc4)CC3)nc(OCC(F)(F)F)n2)cc1)C(=O)O)C(=O)NCC1CC1c1cc(F)ccc1F (some centres unmarked) [Compound 1442],0.01 to 10 nM

# Same assay, conditions: Hepatitis C virus, Huh-7, 48 h, read-out: Activity (EC50 class), HCV pseudoparticles, Huh7 cells, luciferase 2 days after infection; average of duplicates
row,SMILES,EC50
1,O=C(NC[C@H](NC(=O)c1ccc(Nc2nc(NC3(c4ccc(Cl)cc4)CC3)nc(OCC(F)(F)F)n2)cc1)C(=O)O)C(=O)Nc1ccc(N2CCOCC2)nc1 [Compound 3759],0.01 to 10 nM
2,Nc1ccc(NC(=O)C(=O)NC[C@H](NC(=O)c2ccc(Nc3nc(NC4(c5ccc(Cl)cc5)CC4)nc(OCC(F)(F)F)n3)cc2)C(=O)O)nc1 [Compound 3761],0.01 to 10 nM
3,NC(=O)CCc1cccc(NC(=O)C(=O)NCC[C@H](NC(=O)c2ccc(Nc3nc(NC4(c5ccc(Cl)cc5)CC4)nc(OCC(F)(F)F)n3)cc2)C(=O)O)c1 [Compound 3663],0.01 to 10 nM
4,COC(=O)[C@H](CNC(=O)C(=O)Nc1ccc(O)nc1)NC(=O)c1ccc(Nc2nc(NC3(c4ccc(Cl)cc4)CC3)nc(OCC(F)(F)F)n2)cc1 [Compound 3722],0.01 to 10 nM
5,O=C(NC[C@H](NC(=O)c1ccc(Nc2nc(NC3(c4ccc(Cl)cc4)CC3)nc(OCC(F)(F)F)n2)cc1)C(=O)O)C(=O)Nc1cccc(S(=O)(=O)C(F)(F)F)c1 [Compound 3766],0.01 to 10 nM
6,CC(C)(CNC(=O)C(=O)Nc1ccc(-c2cccc(F)c2)cc1)CNC(=O)c1ccc(Nc2nc(NC3(c4ccc(Cl)cc4)CC3)nc(OCC(F)(F)F)n2)cc1 [Compound 3797],0.01 to 10 nM

# Same assay, conditions: Hepatitis C virus, Huh-7, read-out: Activity (EC50 class), HCV pseudoparticles (genotype 1a, H77C) in Huh7 cells; EC50 expressed as class A/B
row,SMILES,EC50
1,NC(=O)C(=O)NCC(O)CNC(=O)c1ccc(Nc2nc(NC3(c4ccc(Cl)cc4)CC3)nc(OCC(F)(F)F)n2)cc1 (centres unmarked) [Compound 3458],0.01 to 10 nM
2,O=C(Cc1nccs1)C(=O)NCC(O)CNC(=O)c1ccc(Nc2nc(NC3(c4ccc(Cl)cc4)CC3)nc(OCC(F)(F)F)n2)cc1 (centres unmarked) [Compound 3462],0.01 to 10 nM
3,Cn1cnnc1-c1ccc(NC(=O)C(=O)NCCC(NC(=O)c2ccc(Nc3nc(NC4(c5ccc(Cl)cc5)CC4)nc(OCC(F)(F)F)n3)cc2)C(=O)O)cc1 (centres unmarked) [Compound 3538],10 to 1000 nM
4,COC(=O)[C@H](CNC(=O)C(=O)Nc1ccc(Cc2ccccc2)cc1)NC(=O)c1ccc(Nc2nc(NC3(c4ccc(Cl)cc4)CC3)nc(OCC(F)(F)F)n2)cc1 [Compound 3091],0.01 to 10 nM
5,O=C(NC/C(=N/C(=O)c1ccc(Nc2nc(NC3(c4ccc(Cl)cc4)CC3)nc(OCC(F)(F)F)n2)cc1)C(=O)O)C(=O)Nc1ccc(-n2cccn2)cc1 [Compound 3173],0.01 to 10 nM
6,COC(=O)[C@H](CNC(=O)C(=O)Nc1ccc(Oc2ccccc2)cc1)NC(=O)c1ccc(Nc2nc(NC3(c4ccc(Cl)cc4)CC3)nc(OCC(F)(F)F)n2)cc1 [Compound 3082],0.01 to 10 nM
7,O=C(Nc1ccc(F)cc1F)C(=O)N(CCO)CCCNC(=O)c1ccc(Nc2nc(NC3(c4ccc(Cl)cc4)CC3)nc(OCC(F)(F)F)n2)cc1 [Compound 3503],0.01 to 10 nM
8,O=C(NCCCCNC(=O)c1ccc(Nc2nc(NC3(c4ccc(Cl)cc4)CC3)nc(OCC(F)(F)F)n2)cc1)C(=O)NCc1ccc(F)cc1 [Compound 3392],0.01 to 10 nM
9,CC(C)(CNC(=O)c1ccc(Nc2nc(NC3(c4ccc(Cl)cc4)CC3)nc(OCC(F)(F)F)n2)cc1)NC(=O)C(=O)N1CCCCC1 [Compound 3439],0.01 to 10 nM
10,O=C(NCCCCNC(=O)c1ccc(Nc2nc(NC3(c4ccc(Cl)cc4)CC3)nc(OCC(F)(F)F)n2)cc1)C(=O)N1CCCCC1 [Compound 3401],0.01 to 10 nM
11,CC(C)(CNC(=O)C(=O)Nc1cccc(C(=O)c2ccccc2)c1)CNC(=O)c1ccc(Nc2nc(NC3(c4ccc(Cl)cc4)CC3)nc(OCC(F)(F)F)n2)cc1 [Compound 3078],0.01 to 10 nM
12,CCOc1ccc(NC(=O)C(=O)NCC(C)(C)CNC(=O)c2ccc(Nc3nc(NC4(c5ccc(Cl)cc5)CC4)nc(OCC(F)(F)F)n3)cc2)cc1 [Compound 3062],0.01 to 10 nM
13,CC(C)(CNC(=O)C(=O)Nc1ccc(OC(F)F)cc1)CNC(=O)c1ccc(Nc2nc(NC3(c4ccc(Cl)cc4)CC3)nc(OCC(F)(F)F)n2)cc1F [Compound 3562],0.01 to 10 nM
14,CC(C)(CNC(=O)C(=O)Nc1ccc2ncsc2c1)CNC(=O)c1ccc(Nc2nc(NC3(c4ccc(Cl)cc4)CC3)nc(OCC(F)(F)F)n2)cc1 [Compound 3340],0.01 to 10 nM
15,COC(=O)[C@H](CCNC(=O)C(=O)Nc1ccc(Cc2ccncc2)cc1)NC(=O)c1ccc(Nc2nc(NC3(c4ccc(Cl)cc4)CC3)nc(OCC(F)(F)F)n2)cc1 [Compound 3123],0.01 to 10 nM
16,CC(C)(CNC(=O)c1ccc(Nc2nc(NC3(c4ccc(Cl)cc4)CC3)nc(OCC(F)(F)F)n2)cc1)NC(=O)C(=O)Nc1nccs1 [Compound 3437],0.01 to 10 nM
17,COC(=O)[C@H](CNC(=O)C(=O)Nc1ccc(CNC(N)=O)cc1)NC(=O)c1ccc(Nc2nc(NC3(c4ccc(Cl)cc4)CC3)nc(OCC(F)(F)F)n2)cc1 [Compound 3197],0.01 to 10 nM
18,COC(=O)/C(CCNC(=O)C(=O)Nc1ccc(Oc2ccccc2)nc1)=N\C(=O)c1ccc(Nc2nc(NC3(c4ccc(Cl)cc4)CC3)nc(OCC(F)(F)F)n2)cc1 [Compound 3593],0.01 to 10 nM
19,CC(C)(CNC(=O)C(=O)Nc1nc2c(s1)CCCC2)CNC(=O)c1ccc(Nc2nc(NC3(c4ccc(Cl)cc4)CC3)nc(OCC(F)(F)F)n2)cc1 [Compound 3350],0.01 to 10 nM
20,O=C(NC[C@H](NC(=O)c1ccc(Nc2nc(NC3(c4ccc(Cl)cc4)CC3)nc(OCC(F)(F)F)n2)cc1)C(=O)O)C(=O)Nc1ccc(Oc2ccncc2)cc1 [Compound 3289],0.01 to 10 nM
21,CC(CNC(=O)C(=O)Nc1ccccc1)CNC(=O)c1ccc(Nc2nc(NC3(c4ccc(Cl)cc4)CC3)nc(OCC(F)(F)F)n2)cc1 (centres unmarked) [Compound 3470],0.01 to 10 nM
22,COC(=O)/C(CCNC(=O)C(=O)Nc1ccc(N2CCOCC2)nc1)=N\C(=O)c1ccc(Nc2nc(NC3(c4ccc(Cl)cc4)CC3)nc(OCC(F)(F)F)n2)cc1 [Compound 3585],0.01 to 10 nM
23,CC(C)(CNC(=O)c1ccc(Nc2nc(NC3(c4ccc(Cl)cc4)CC3)nc(OCC(F)(F)F)n2)cc1)NC(=O)C(=O)NCc1ccc(F)cc1 [Compound 3419],0.01 to 10 nM
24,Cn1ccc(NC(=O)C(=O)NCC(C)(C)CNC(=O)c2ccc(Nc3nc(NC4(c5ccc(Cl)cc5)CC4)nc(OCC(F)(F)F)n3)cc2)n1 [Compound 3023],0.01 to 10 nM
25,O=C(NC/C(=N/C(=O)c1ccc(Nc2nc(NC3(c4ccc(Cl)cc4)CC3)nc(OCC(F)(F)F)n2)cc1)C(=O)O)C(=O)Nc1ccc(OCC(F)(F)F)cc1 [Compound 3164],0.01 to 10 nM
26,CN(CCCN(C)C(=O)c1ccc(Nc2nc(NC3(c4ccc(Cl)cc4)CC3)nc(OCC(F)(F)F)n2)cc1)C(=O)C(=O)N1CCc2ccccc2C1 [Compound 3433],10 to 1000 nM

# Source: patent US8916702B2 (priority 2012, dated 2014)
